One molecule from US8003119B2, “Composition for pharmaceutical or dietetic use for combating hair loss” (Giuliani S.p.A., priority 2002, dated 2011) can be followed below.

The structures appear in SMILES notation.

What all share (assay type): in vivo, man
For data set [1], the system named is volunteers with telogenic defluvium. The data set can be described thus: Clinical study: haematochemical analysis. The following applies: oral, one capsule a day for 60 days. Here is the method:
(§1) This controlled, randomized double-blind study was performed according to the present invention by means of the protocols below.
(§2) Sixty volunteers of both sexes and ranging between 18 and 60 years old were divided into three groups of 20 individuals each, all having the same level of pathology, i.e. telogenic defluvium existing for at least 2 months.
(§3) Some of these individuals were treated for 60 days with one capsule a day of a composition of the invention, according to the following scheme:
(§4) Group 1: 20 individuals treated with a composition of the invention containing spermidine alone (0.50 mg per capsule).
(§5) Group 2: 20 individuals treated with a composition of the invention according to Example 1 described later (spermidine 0.50 mg per capsule). […]
(§6) The parameters evaluated were the following: • A) General dermatological visit. • B) Microscopic evaluation of the shaft of the hairs (diameter and possible structural changes in the hair). • C) Trichogram, i.e. evaluation of the bulbs in the anagenic (growth) phase, catagenic (involutive stasis) phase, telogenic (pathological precocious hair loss) phase and exogenic (physiological loss of hairs since they are replaced with new hairs). • D) Haematochemical analysis. • E) Pull test (mechanical tensile strength of the hair). • F) Wash test (count of the hairs lost after washing with shampoo). • G) Possible side effects. […]

For data set [2] the test system is unchanged. The data set can be described thus: Clinical study: microscopic evaluation of the hair shaft. The following applies: oral, one capsule a day (spermidine 0.50 mg) for 60 days; placebo virtually unchanged. Here is the method:
as §1, §2, §3, §4, §5, §6

Data set [3] has the same test system. The data set can be described thus: Clinical study: pull test (mechanical tensile strength of the hair). The following applies: oral, one capsule a day for 60 days; placebo virtually unchanged. The method, then: as §1, §2, §3, §4, §5, §6
Data set [4] shares this test system. The data set can be described thus: Clinical study: general dermatological visit. The following applies: oral, one capsule a day (spermidine 0.50 mg) for 60 days; compared with placebo group 3. Here is the method:
as §1, §2, §3, §4, §5, §6

Data set [5] shares this test system. The data set can be described thus: Clinical study: wash test (count and phase of hairs lost after shampoo). The method, then:
as §1, §2, §3, §4
(§7) Group 2: 20 individuals treated with a composition of the invention according to Example 1 described later (spermidine 0.50 mg per capsule).
(§8) Group 3: 20 individuals treated with a placebo, in capsules.
(§9) The parameters evaluated were the following: • A) General dermatological visit. • B) Microscopic evaluation of the shaft of the hairs (diameter and possible structural changes in the hair). • C) Trichogram, i.e. evaluation of the bulbs in the anagenic (growth) phase, catagenic (involutive stasis) phase, telogenic (pathological precocious hair loss) phase and exogenic (physiological loss of hairs since they are replaced with new hairs). • D) Haematochemical analysis. • E) Pull test (mechanical tensile strength of the hair). • F) Wash test (count of the hairs lost after washing with shampoo). • G) Possible side effects.
(§10) These parameters were evaluated at time T0 (before the start of the treatment); at time T1 (at the end of the 60 days of treatment); and finally at time T2 (30 days after stopping the administration).
This test makes it possible not only to quantify the number of hairs lost after shampooing, but also, by means of a suitable microscopic analysis, to evaluate the phase of the cycle in which the bulb was found when the hair fell out: pathological loss (telogenic) or phase of physiological exchange (exogenic).
The test results are given in the graph of FIG. 3 in the attached drawings. […]

The test system is the same in data set [6]. The data set can be described thus: Clinical study: trichogram (evaluation of the hair bulbs by phase). Here is the method:
as §1, §2, §3, §4, §7, §8, §9, §10
In this regard, reference is made to the diagrams of FIGS. 1 and 2 in the attached drawings. These show the trichogram of the anagenic and telogenic phases at times T0 (before the start of the treatment); at time T1 (at the end of the 60 days of treatment); and finally at time T2 (30 days after stopping the administration) for the individuals of the three groups, 1 (grey column), 2 (black column) and 3 (pale column). The percentage of hairs in the anagenic phase (FIG. 1) and in the telogenic phase (FIG. 2) for the treated individuals belonging to the three groups under consideration is shown on the y-axis, and the said times T are shown on the x-axis, under which are tabulated the said percentages found.

Where [7] appears, read: oral, one capsule a day for 60 days, placebo not significantly changed.

As for `NCCCCNCCCN` [spermidine, N-(3-aminopropyl)tetramethylenediamine], in data set [1], the haematochemical analyses entry is on record as “within the norm”. Further, the “diameter of the hair shaft” value in data set [2] was “increases quite substantially”. For the same molecule, the “mechanical tensile strength of the hair (pull test)” value in data set [3] is on record as “increased significantly”. In data set [4], the “hair loss at dermatological visit” value is “appreciable and significant reduction in the hair loss”; the “structure of the hair shaft at dermatological visit” value is “improvement in the structure of the shaft”. The “lost hairs in the telogenic phase (pathological loss)” value in data set [5] (bulbs of hairs lost in the wash test, placebo more than 90%) turned out to be 63%. Also, in data set [5] (bulbs of hairs lost in the wash test, placebo only 3%), the “lost hairs in the exogenic phase (physiological loss)” value was determined as 33%. The “number of hairs lost in the wash test” value in data set [5] (oral, one capsule a day for 60 days, placebo unchanged) is recorded as “decreases significantly”. In data set [6] (T1 = end of the 60 days of treatment, relative to T0, placebo 2.7%), the “increase in the anagenic phase at T1” value stood at 8.1%. The “decrease in the telogenic phase at T1” value in data set [6] (T1 = end of the 60 days of treatment, placebo increased by about 1.88%) worked out at 9.1%. Also, the “decrease in the telogenic phase at T2” value in data set [6] (T2 = 30 days after stopping the 60-day administration, placebo 4.16%) is recorded as 6.76%. In addition, the “increase in the anagenic phase at T2 relative to T0” value in data set [6] (T2 = 30 days after stopping the 60-day administration, placebo 7.79%) is recorded as 17.2%. In data set [6] (setting [7]), the “number of bulbs in the anagenic phase (in words)” value is on record as “increases significantly” and the “telogenic phase (in words)” value was “decreases significantly”.
